Results as given in US10675352B2 (CENTROSE, LLC, priority 2014, dated 2020).
Where two headings read alike, the source gives them in different places.

Experiments:
SU-DHL-8 cells [1] = assay: cells; details: Homo sapiens, SU-DHL-8, 72 h, read-out: EC50 in picoM, SUDHL8
Ramos [2] = assay: cells; details: Homo sapiens, 72 h, read-out: EC50 in picoM, Ramos
[3] = system: HL60, U937, MV411, Hut78, H929, and RAMOS; assay: In vitro cytotoxic activity on six human blood cancer cell types, overall statements; format: cell-based; details: all cell lines tested except RAMOS
Description: Agent loading was determined to be about 4.

SU-DHL-8 cells [4] = details: agents and agent-linker intermediates; value in parentheses; 3 days incubation
Ramos [5] = system: Ramos

Row | SMILES | EC50 (SU-DHL-8 cells [1]) [nM] | EC50 (Ramos [2]) [nM] | effect of ATRA alone on cell growth [3] | % viab., SUDHL8 (SU-DHL-8 cells [4]) [%] | % viab., Ramos (Ramos [5]; human, 3 days) [%] | % viab., Ramos (Ramos [5]; agents and agent-linker intermediates, value in parentheses, 3 days incubation) [%]
1 | C[C@]12CC[C@H](OC(=O)NCCCN3CCN(CCCN)CC3)C[C@H]1CC[C@@H]1[C@@H]2CC[C@]2(C)[C@@H](C3=CC(=O)OC3)CC[C@]12O | > 50 | > 50 | – | – | – | –
2 | CN(CCCN)CCCNC(=O)O[C@H]1CC[C@@]2(C)C(CCC3C2CC[C@]2(C)C(c4ccc(=O)oc4)CC[C@]32O)C1 (stereo in doubt) [CEN-372, 5-[(1S,2S,5S,7R,10R,11S,14S,15R)-5-{3-[N-Methyl(3-aminopropyl)amino]propylaminocarbonyloxy}-11-hydroxy-2,15-dimethyltetracyclo[8.7.0.02,7.011,15]heptadec-14-yl]-2-pyranone] | 4.4 | 3.6 | – | – | – | –
3 | C[C@]12CC[C@H](OC(=O)NCCCNCCCN)CC1CCC1C2CC[C@]2(C)C(c3ccc(=O)oc3)CC[C@]12O (stereo in doubt) [CEN-373, 5-{(1S,2S,5S,7R,10R,11S,14S,15R)-5-[3-(3-Aminopropylamino)propylaminocarbonyloxy]-11-hydroxy-2,15-dimethyltetracyclo[8.7.0.02,7.011,15]heptadec-14-yl}-2-pyranone] | 5.9 | 4 | – | – | – | –
4 | CC1=C(/C=C/C(C)=C/C=C/C(C)=C/C(=O)O)C(C)(C)CCC1 [ATRA, all-trans-retinoic acid] | – | – | slowed cell growth | – | – | –
5 | C[C@]12CC[C@H](O)C[C@H]1CC[C@@H]1[C@@H]2CC[C@]2(C)[C@@H](c3ccc(=O)oc3)CC[C@]12O [Bufalin, reference compound] | 16 | 7.3 | – | – | – | –
6 | C[C@]12CCC(OC[C@@H]3OC[C@H](N)C(O)C3O)C=C1CCC1C2CC[C@]2(C)[C@@H](c3ccc(=O)oc3)CC[C@]12O (some centres unmarked) [CEN09-106] | 2.07 | 1.9 | – | 0 | – | –
7 | C[C@]12CC[C@H](OC[C@@H]3OC[C@H](N)C(O)C3O)CC1CCC1C2CC[C@]2(C)[C@@H](C3=CC(=O)OC3)CC[C@]12O (some centres unmarked) [CEN-319] | 8.4 | 5.8 | – | – | 0 | –
8 | C[C@]12CC[C@H](OC(=O)NCCCN3CCN(CCCN)CC3)CC1CCC1C2CC[C@]2(C)[C@@H](c3ccc(=O)oc3)CC[C@]12O (some centres unmarked) [CEN-371] | 11 | 7.81 | – | 0 | – | 0
9 | C[C@]12CC[C@H](O)C[C@H]1CC[C@@H]1[C@@H]2CC[C@]2(C)[C@@H](C3=CC(=O)OC3)CC[C@]12O [Digitoxigenin, reference compound] | > 50 | > 50 | – | – | – | –
10 | C[C@]12CC[C@H](O)C=C1CC[C@@H]1[C@@H]2CC[C@]2(C)[C@@H](c3ccc(=O)oc3)CC[C@]12O [Scillarenin, reference compound] | 18 | 17 | – | – | – | –
